Ten compounds from patent US20240408085A1, “COMPOUND FOR DEGRADATION OF BCL-2 FAMILY PROTEINS AND MEDICAL APPLICATION THEREOF” (XIZANG HAISCO PHARMACEUTICAL CO., LTD., priority 2021, published 2024) can be followed below.

The test system of this assay is MOLT-4 cells. Put plainly: Cell proliferation activity in MOLT-4 cells (72 h, cell viability luminescence). As to conditions: Homo sapiens, read-out: IC50 for the inhibition of MOLT-4 cell proliferation. In kind it is cell-based, human. As to the method: MOLT-4 cells are acute lymphoblastic leukemia cell lines in humans. The cells were purchased from ATCC. Culture conditions: RPMI-1640+10% FBS+1% penicillin-streptomycin solution. The cells were cultured in a 37° C., 5% CO2 incubator. The cells were plated in a 96-well plate, with 5×10^3 cells/well. After plating, compounds at different concentrations were added and cultured in a 37° C., 5% CO2 incubator for 72 h. After the completion of culture, a reagent (Promega, G7573) for detecting the cell viability was added. The mixture was uniformly mixed for 2 minutes and then incubated at room temperature for 10 minutes. The luminescence signal was detected with a multimode plate reader (BMG, PHERAstar FSX). The luminescence readings were processed using GraphPad Prism 8.0 software and the IC50 values of the compounds for the inhibition of cell proliferation and the maximum inhibition rate were calculated according to formula (2) and formula (3), respectively, wherein Tadministration denotes the cell signal readings obtained after incubation with the compounds for 72 h, and Tvehicle denotes the cell signal readings obtained after incubation with the vehicle control for 72 h.
Calculation of Max inhibition %: after the processing according to formula (2), the inhibition rate of the compounds at the highest concentration was calculated.

On to `Cc1ncsc1-c1ccc([C@H](C)NC(=O)[C@@H]2C[C@@H](O)CN2C(=O)[C@@H](NC(=O)CCCCCC(=O)N2CCN(CC[C@H](CSc3ccccc3)Nc3ccc(S(=O)(=O)NC(=O)c4ccc(N5CCN(CC6=C(c7ccc(Cl)cc7F)CCC7(CC7)C6)CC5)cc4)cc3S(=O)(=O)C(F)(F)F)CC2)C(C)(C)C)cc1` [Compound 31, (2S,4R)-1-((S)-2-(7-(4-((R)-3-((4-(N-(4-(4-((6-(4-chloro-2-fluorophenyl)spiro[2.5]oct-5-en-5-yl)methyl)piperazin-1-yl)benzoyl)sulfamoyl)-2-((trifluoromethyl)sulfonyl)phenyl)amino)-4-(phenylthio)butyl)piperazin-1-yl)-7-oxoheptanamido)-3,3-dimethylbutanoyl)-4-hydroxy-N—((S)-1-(4-(4-methylthiazol-5-yl)phenyl)ethyl)pyrrolidine-2-carboxamide], for which the IC50 was less than 500 nM.
For `Cc1ncsc1-c1ccc([C@H](C)NC(=O)[C@@H]2C[C@@H](O)CN2C(=O)[C@@H](NC(=O)CCCCCC(=O)N2C[C@@H]3C[C@H]2CN3CC[C@H](CSc2ccccc2)Nc2ccc(S(=O)(=O)NC(=O)c3ccc(N4CCN(CC5=C(c6ccc(Cl)cc6F)CCCCC5)CC4)cc3)cc2S(=O)(=O)C(F)(F)F)C(C)(C)C)cc1` [Compound 37, (2S,4R)-1-((S)-2-(7-((1S,4S)-5-((R)-3-((4-(N-(4-(4-((2-(4-chloro-2-fluorophenyl)cyclohept-1-en-1-yl)methyl)piperazin-1-yl)benzoyl)sulfamoyl)-2-((trifluoromethyl)sulfonyl)phenyl)amino)-4-(phenylthio)butyl)-2,5-diazabicyclo[2.2.1]heptan-2-yl)-7-oxoheptanamido)-3,3-dimethylbutanoyl)-4-hydroxy-N—((S)-1-(4-(4-methylthiazol-5-yl)phenyl)ethyl)pyrrolidine-2-carboxamide] the value was less than 500 nM; for `Cc1ncsc1-c1ccc([C@H](C)NC(=O)[C@@H]2C[C@@H](O)CN2C(=O)[C@@H](NC(=O)CCCCCC(=O)N2C[C@H]3CN(CC[C@H](CSc4ccccc4)Nc4ccc(S(=O)(=O)NC(=O)c5ccc(N6CCN(CC7=C(c8ccc(Cl)cc8)CCC8(CC8)C7)CC6)cc5)cc4S(=O)(=O)C(F)(F)F)C[C@H]3C2)C(C)(C)C)cc1` [Compound 18, cis-(2S,4R)-1-((S)-2-(7-(5-((R)-3-((4-(N-(4-(4-((6-(4-chlorophenyl)spiro[2.5]oct-5-en-5-yl)methyl)piperazin-1-yl)benzoyl)sulfamoyl)-2-((trifluoromethyl)sulfonyl)phenyl)amino)-4-(phenylthio)butyl)hexahydropyrrolo[3,4-c]pyrrol-2(1H)-yl)-7-oxoheptanamido)-3,3-dimethylbutanoyl)-4-hydroxy-N—((S)-1-(4-(4-methylthiazol-5-yl)phenyl)ethyl)pyrrolidine-2-carboxamide], less than 500 nM.
For `Cc1ncsc1-c1ccc([C@H](C)NC(=O)[C@@H]2C[C@@H](O)CN2C(=O)[C@@H](NC(=O)CCCCCC(=O)N2CCC3(CC2)CN(CC[C@H](CSc2ccccc2)Nc2ccc(S(=O)(=O)NC(=O)c4ccc(N5CCN(CC6=C(c7ccc(Cl)cc7)CCC(C)(C)C6)CC5)cc4)cc2S(=O)(=O)C(F)(F)F)C3)C(C)(C)C)cc1` [Trifluoroacetate of compound 9, (2S,4R)-1-((S)-2-(7-(2-((R)-3-((4-(N-(4-(4-((4′-chloro-4,4-dimethyl-3,4,5,6-tetrahydro-[1,1′-biphenyl]-2-yl)methyl)piperazin-1-yl)benzoyl)sulfamoyl)-2-((trifluoromethyl)sulfonyl)phenyl)amino)-4-(phenylthio)butyl)-2,7-diazaspiro[3.5]nonan-7-yl)-7-oxoheptanamido)-3,3-dimethylbutanoyl)-4-hydroxy-N—((S)-1-(4-(4-methylthiazol-5-yl)phenyl)ethyl)pyrrolidine-2-carboxamide] the value was less than 500 nM; for `Cc1ncsc1-c1ccc([C@H](C)NC(=O)[C@@H]2C[C@@H](O)CN2C(=O)[C@@H](NC(=O)CCCCCCC(=O)N2CCN(CC[C@H](CSc3ccccc3)Nc3ccc(S(=O)(=O)NC(=O)c4ccc(N5CCN(CC6=C(c7ccc(Cl)cc7F)CCCCC6)CC5)cc4)cc3S(=O)(=O)C(F)(F)F)CC2)C(C)(C)C)cc1` [Compound 36, (2S,4R)-1-((S)-2-(8-(4-((R)-3-((4-(N-(4-(4-((2-(4-chloro-2-fluorophenyl)cyclohept-1-en-1-yl)methyl)piperazin-1-yl)benzoyl)sulfamoyl)-2-((trifluoromethyl)sulfonyl)phenyl)amino)-4-(phenylthio)butyl)piperazin-1-yl)-8-oxooctanamido)-3,3-dimethylbutanoyl)-4-hydroxy-N—((S)-1-(4-(4-methylthiazol-5-yl)phenyl)ethyl)pyrrolidine-2-carboxamide], less than 500 nM.
For `Cc1ncsc1-c1ccc([C@H](C)NC(=O)[C@@H]2C[C@@H](O)CN2C(=O)[C@@H](NC(=O)CCCCCCC(=O)N2C[C@@H]3C[C@H]2CN3CC[C@H](CSc2ccccc2)Nc2ccc(S(=O)(=O)NC(=O)c3ccc(N4CCN(CC5=C(c6ccc(Cl)cc6)CCC(C)(C)C5)CC4)cc3)cc2S(=O)(=O)C(F)(F)F)C(C)(C)C)cc1` [Compound 25, (2S,4R)-1-((S)-2-(8-((1S,4S)-5-((R)-3-((4-(N-(4-(4-((4′-chloro-4,4-dimethyl-3,4,5,6-tetrahydro-[1,1′-biphenyl]-2-yl)methyl)piperazin-1-yl)benzoyl)sulfamoyl)-2-((trifluoromethyl)sulfonyl)phenyl)amino)-4-(phenylthio)butyl)-2,5-diazabicyclo[2.2.1]heptan-2-yl)-8-oxooctanamido)-3,3-dimethylbutanoyl)-4-hydroxy-N—((S)-1-(4-(4-methylthiazol-5-yl)phenyl)ethyl)pyrrolidine-2-carboxamide] the value was less than 500 nM; for `Cc1ncsc1-c1ccc([C@H](C)NC(=O)[C@@H]2C[C@@H](O)CN2C(=O)[C@@H](NC(=O)CCCCCC(=O)N2C[C@@H]3C[C@H]2CN3CC[C@H](CSc2ccccc2)Nc2ccc(S(=O)(=O)NC(=O)c3ccc(N4CCN(CC5=C(c6ccc(Cl)cc6F)CCC6(CC6)C5)CC4)cc3)cc2S(=O)(=O)C(F)(F)F)C(C)(C)C)cc1` [Compound 29, (2S,4R)-1-((S)-2-(7-((1S,4S)-5-((R)-3-((4-(N-(4-(4-((6-(4-chloro-2-fluorophenyl)spiro[2.5]oct-5-en-5-yl)methyl)piperazin-1-yl)benzoyl)sulfamoyl)-2-((trifluoromethyl)sulfonyl)phenyl)amino)-4-(phenylthio)butyl)-2,5-diazabicyclo[2.2.1]heptan-2-yl)-7-oxoheptanamido)-3,3-dimethylbutanoyl)-4-hydroxy-N—((S)-1-(4-(4-methylthiazol-5-yl)phenyl)ethyl)pyrrolidine-2-carboxamide], less than 500 nM.
For the compound `Cc1ncsc1-c1ccc([C@H](C)NC(=O)[C@@H]2C[C@@H](O)CN2C(=O)[C@@H](NC(=O)CCCCCC(=O)N2C[C@H]3CN(CC[C@H](CSc4ccccc4)Nc4ccc(S(=O)(=O)NC(=O)c5ccc(N6CCN(CC7=C(c8ccc(Cl)cc8)CCCCC7)CC6)cc5)cc4S(=O)(=O)C(F)(F)F)C[C@H]3C2)C(C)(C)C)cc1` [Compound 41, cis-(2S,4R)-1-((S)-2-(7-(5-((R)-3-((4-(N-(4-(4-((2-(4-chlorophenyl)cyclohept-1-en-1-yl)methyl)piperazin-1-yl)benzoyl)sulfamoyl)-2-((trifluoromethyl)sulfonyl)phenyl)amino)-4-(phenylthio)butyl)hexahydropyrrolo[3,4-c]pyrrol-2(1H)-yl)-7-oxoheptanamido)-3,3-dimethylbutanoyl)-4-hydroxy-N—((S)-1-(4-(4-methylthiazol-5-yl)phenyl)ethyl)pyrrolidine-2-carboxamide], the IC50 was less than 500 nM.
For `Cc1ncsc1-c1ccc([C@H](C)NC(=O)[C@@H]2C[C@@H](O)CN2C(=O)[C@@H](NC(=O)CCCCCCC(=O)N2C[C@H]3CN(CC[C@H](CSc4ccccc4)Nc4ccc(S(=O)(=O)NC(=O)c5ccc(N6CCN(CC7=C(c8ccc(Cl)cc8F)CCC8(CC8)C7)CC6)cc5)cc4S(=O)(=O)C(F)(F)F)C[C@H]3C2)C(C)(C)C)cc1` [Compound 23, cis-(2S,4R)-1-((S)-2-(8-(5-((R)-3-((4-(N-(4-(4-((6-(4-chloro-2-fluorophenyl)spiro[2.5]oct-5-en-5-yl)methyl)piperazin-1-yl)benzoyl)sulfamoyl)-2-((trifluoromethyl)sulfonyl)phenyl)amino)-4-(phenylthio)butyl)hexahydropyrrolo[3,4-c]pyrrol-2(1H)-yl)-8-oxooctanamido)-3,3-dimethylbutanoyl)-4-hydroxy-N—((S)-1-(4-(4-methylthiazol-5-yl)phenyl)ethyl)pyrrolidine-2-carboxamide] the value was less than 500 nM; for `Cc1ncsc1-c1ccc([C@H](C)NC(=O)[C@@H]2C[C@@H](O)CN2C(=O)[C@@H](NC(=O)CCCCCCC(=O)N2C[C@H]3CN(CC[C@H](CSc4ccccc4)Nc4ccc(S(=O)(=O)NC(=O)c5ccc(N6CCN(CC7=C(c8ccc(Cl)cc8)CCC(C)(C)C7)CC6)cc5)cc4S(=O)(=O)C(F)(F)F)C[C@H]3C2)C(C)(C)C)cc1` [Compound 17, cis-(2S,4R)-1-((S)-2-(8-(5-((R)-3-((4-(N-(4-(4-((4′-chloro-4,4-dimethyl-3,4,5,6-tetrahydro-[1,1′-biphenyl]-2-yl)methyl)piperazin-1-yl)benzoyl)sulfamoyl)-2-((trifluoromethyl)sulfonyl)phenyl)amino)-4-(phenylthio)butyl)hexahydropyrrolo[3,4-c]pyrrol-2(1H)-yl)-8-oxooctanamido)-3,3-dimethylbutanoyl)-4-hydroxy-N—((S)-1-(4-(4-methylthiazol-5-yl)phenyl)ethyl)pyrrolidine-2-carboxamide], less than 500 nM.
